Results on 35 molecules are retold here after patent US9801961B2, “2-phenylimidazo[1,2-a]pyrimidines as imaging agents” (Hoffmann-La Roche Inc., priority 2013, dated 2017).

The assay deals with native tau aggregates. In words: TAU radioligand in vitro displacement assay ([3H]T808 autoradiography on human AD brain sections). As to conditions: compound 10 nM, radioligand [3H]T808 10 nM, 50 mM Tris pH 7.4, room temperature, 30 min. In kind it is binding. An outline of the steps:
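Human AD brain cryosections (10 μm) co-incubated with [3H]T808 (10 nM) and test compound at various concentrations in 50 mM Tris pH 7.4, 30 min at room temperature, then washed at 4° C. Autoradiography after 5-day plate exposure. % displacement from ROI specific binding, white-matter signal subtracted as non-specific; cold T808 internal control.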

In the case of `CNc1ccn2cc(-c3ccc4c(c3)CC(=O)N4)nc2n1` [Example 110, 5-(7-(Methylamino)imidazo[1,2-a]pyrimidin-2-yl)indolin-2-one], the “% displacement of [3H]T808 (10 nM) at 10 nM” value (shortened to “% displacement of [3H]T808”) is 18%.
Under `FCCOc1ccc(-c2cn3ccc(N4CCC4)nc3n2)cc1` [Example 111, 7-(Azetidin-1-yl)-2-(4-(2-fluoroethoxy)phenyl)imidazo[1,2-a]pyrimidine] stands 25%; under `FCCCOc1ccc(-c2cn3ccc(N4CCC4)nc3n2)cc1` [Example 112, 7-(Azetidin-1-yl)-2-(4-(3-fluoropropoxy)phenyl)imidazo[1,2-a]pyrimidine], 15%; under `COc1cccc(-c2cn3ccc(N4CCC4)nc3n2)c1` [Example 113, 7-(Azetidin-1-yl)-2-(3-methoxyphenyl)imidazo[1,2-a]pyrimidine], 36%.
Under `CNc1ccn2cc(-c3cccc(CO)c3)nc2n1` [Example 114, [3-[7-(Methylamino)imidazo[1,2-a]pyrimidin-2-yl]phenyl]methanol acetic acid adduct] stands 11%.
Under `FCCOc1cccc(-c2cn3ccc(N4CCC4)nc3n2)c1` [Example 115, 7-(Azetidin-1-yl)-2-(3-(2-fluoroethoxy)phenyl)imidazo[1,2-a]pyrimidine] stands 5%; under `COc1ccc(-c2cn3ccc(N(CCF)C4CC4)nc3n2)cc1` [Example 116, N-Cyclopropyl-N-(2-fluoroethyl)-2-(4-methoxyphenyl)imidazo[1,2-a]pyrimidin-7-amine], 9%; under `CNc1ccn2cc(-c3cccc(OC)c3)nc2n1` [Example 117, 2-(3-Methoxyphenyl)-N-methylimidazo[1,2-a]pyrimidin-7-amine], 40%.
On to `FCOc1cccc(-c2cn3ccc(N4CCC4)nc3n2)c1` [Example 118, 7-(Azetidin-1-yl)-2-(3-(fluoromethoxy)phenyl)imidazo[1,2-a]pyrimidine], for which the “% displacement of [3H]T808” value was found to be 23%.
Regarding `Fc1ccc(-c2cn3ccc(N4CCC4)nc3n2)cc1` [Example 119, 7-(Azetidin-1-yl)-2-(4-fluorophenyl)imidazo[1,2-a]pyrimidine], the “% displacement of [3H]T808” value turned out to be 22%.
To `Fc1cccc(-c2cn3ccc(N4CCC4)nc3n2)c1` [Example 120, 7-(Azetidin-1-yl)-2-(3-fluorophenyl)imidazo[1,2-a]pyrimidine] belongs 22%; to `COc1cc(OC)cc(-c2cn3ccc(N4CCC4)nc3n2)c1` [Example 121, 7-(Azetidin-1-yl)-2-(3,5-dimethoxyphenyl)imidazo[1,2-a]pyrimidine], 5%.
On to `CNc1ccn2cc(-c3ccc(O)cc3)nc2n1` [Example 122, 4-(7-(Methylamino)imidazo[1,2-a]pyrimidin-2-yl)phenol], for which the “% displacement of [3H]T808” value came out at 32%.
On to `CNc1ccn2cc(-c3ccc(OCCF)cc3)nc2n1` [Example 123, 2-(4-(2-Fluoroethoxy)phenyl)-N-methylimidazo[1,2-a]pyrimidin-7-amine], for which the “% displacement of [3H]T808” value is listed as 43%.
Under `CNc1ccn2cc(-c3ccc(OCCCF)cc3)nc2n1` [Example 124, 2-(4-(3-Fluoropropoxy)phenyl)-N-methylimidazo[1,2-a]pyrimidin-7-amine] stands 40%.
In the case of `CNc1ccn2cc(-c3cccc(O)c3)nc2n1` [Example 125, 3-(7-(Methylamino)imidazo[1,2-a]pyrimidin-2-yl)phenol], the “% displacement of [3H]T808” value stood at 16%.
Take `CSc1cccc(-c2cn3ccc(N4CCC4)nc3n2)c1` [Example 126, 7-(Azetidin-1-yl)-2-(3-(methylthio)phenyl)imidazo[1,2-a]pyrimidine]: the “% displacement of [3H]T808” value is given as 15%.
As to `COc1cc(-c2cn3ccc(N4CCC4)nc3n2)ccc1C` [Example 127, 7-(Azetidin-1-yl)-2-(3-methoxy-4-methylphenyl)imidazo[1,2-a]pyrimidine], the “% displacement of [3H]T808” value is reported as 11%.
For `COc1ccc(-c2cn3ccc(N4CCC4)nc3n2)cc1OC` [Example 128, 7-(Azetidin-1-yl)-2-(3,4-dimethoxyphenyl)imidazo[1,2-a]pyrimidine], the “% displacement of [3H]T808” value stood at 15%.
To `CNc1ccn2cc(-c3cccc(OCCF)c3)nc2n1` [Example 129, 2-(3-(2-Fluoroethoxy)phenyl)-N-methylimidazo[1,2-a]pyrimidin-7-amine] belongs 16%.
To `CNc1ccn2cc(-c3cccc(OCCCF)c3)nc2n1` [Example 130, 2-(3-(3-Fluoropropoxy)phenyl)-N-methylimidazo[1,2-a]pyrimidin-7-amine] belongs 12%; to `CNc1ccn2cc(-c3cccc(OCF)c3)nc2n1` [Example 131, 2-(3-(Fluoromethoxy)phenyl)-N-methylimidazo[1,2-a]pyrimidin-7-amine], 33%.
`CNc1ccn2cc(-c3ccc(OCF)cc3)nc2n1` [Example 132, 2-(4-(Fluoromethoxy)phenyl)-N-methylimidazo[1,2-a]pyrimidin-7-amine]: the “% displacement of [3H]T808” value is on record as 36%.
To `Oc1cccc(-c2cn3ccc(NC4CC4)nc3n2)c1` [Example 133, 3-(7-(Cyclopropylamino)imidazo[1,2-a]pyrimidin-2-yl)phenol] belongs 14%.
Regarding `FCCOc1cccc(-c2cn3ccc(NC4CC4)nc3n2)c1` [Example 134, N-Cyclopropyl-2-(3-(2-fluoroethoxy)phenyl)imidazo[1,2-a]pyrimidin-7-amine], the “% displacement of [3H]T808” value was determined as 6%.
Regarding `CN(C)c1ccn2cc(-c3ccc(CO)cc3)nc2n1` [Example 135, [4-[7-(Dimethylamino)imidazo[1,2-a]pyrimidin-2-yl]phenyl]methanol acetic acid adduct], the “% displacement of [3H]T808” value is 18%.
For `CNc1ccn2cc(-c3ccc(C(=O)OC)cc3)nc2n1` [Example 136, Methyl 4-[7-(methylamino)imidazo[1,2-a]pyrimidin-2-yl]benzoate], the “% displacement of [3H]T808” value is recorded as 27%.
Under `FCOc1cccc(-c2cn3ccc(NC4CC4)nc3n2)c1` [Example 137, N-Cyclopropyl-2-(3-(fluoromethoxy)phenyl)imidazo[1,2-a]pyrimidin-7-amine] stands 18%.
In the case of `FCCOc1ccc(-c2cn3ccc(NC4CC4)nc3n2)cc1` [Example 138, N-Cyclopropyl-2-(4-(2-fluoroethoxy)phenyl)imidazo[1,2-a]pyrimidin-7-amine], the “% displacement of [3H]T808” value is reported as 20%.
On to `FCCCOc1ccc(-c2cn3ccc(NC4CC4)nc3n2)cc1` [Example 139, N-Cyclopropyl-2-(4-(3-fluoropropoxy)phenyl)imidazo[1,2-a]pyrimidin-7-amine], for which the “% displacement of [3H]T808” value is given as 22%.
Turning to `FCOc1ccc(-c2cn3ccc(NC4CC4)nc3n2)cc1` [Example 140, N-Cyclopropyl-2-(4-(fluoromethoxy)phenyl)imidazo[1,2-a]pyrimidin-7-amine], the “% displacement of [3H]T808” value is recorded as 11%.
Under `CNc1ccn2cc(-c3ccc(SC)cc3)nc2n1` [Example 141, N-Methyl-2-(4-(methylthio)phenyl)imidazo[1,2-a]pyrimidin-7-amine] stands 34%.
To `CNc1ccn2cc(-c3ccc(OC)c(OC)c3)nc2n1` [Example 142, 2-(3,4-Dimethoxyphenyl)-N-methylimidazo[1,2-a]pyrimidin-7-amine] belongs 21%.
For `CNc1ccn2cc(-c3ccc(C)c(OC)c3)nc2n1` [Example 143, 2-(3-Methoxy-4-methylphenyl)-N-methylimidazo[1,2-a]pyrimidin-7-amine], the “% displacement of [3H]T808” value was 21%.
Turning to `CNc1ccn2cc(-c3cc(OC)cc(OC)c3)nc2n1` [Example 144, 2-(3,5-Dimethoxyphenyl)-N-methylimidazo[1,2-a]pyrimidin-7-amine], the “% displacement of [3H]T808” value amounted to 14%.
